We go through two compounds from US10004233B2, “Relating to treatment of water” (BWA WATER ADDITIVES UK LIMITED, priority 2015, dated 2018).

The subject of one assay is Desulfovibrio vulgaris. Description: Log10 reduction of viable anaerobic bacteria in high-TDS phosphate buffer suspension (API RP 38 media vials). Type of assay: cell-based. The conditions noted are these: TDS 30,000 mg l^−1, 5 = complete kill. As to the method: (§1) Aqueous systems inoculated with anaerobe and facultative anaerobe culture and having a total dissolved solids (TDS) concentration of 30,000 mg l^−1 were prepared and treated with treatment agents comprising: (a) a phosphonium compound and (b) an oxazolidine compound. The phosphonium compound (a) used was tri n-butyl n-tetradecyl phosphonium chloride (TTPC). The oxazolidine compound (b) was 4,4-dimethyloxazolidine (DMO).
(§2) A suspension of Desulfovibrio vulgaris plus Enterobacter aerogenes bacteria containing from 1×10^5 to 1×10^6 cells/mL was prepared in sterile pH 8 phosphate buffer containing sodium chloride to give the desired total dissolved solids (TDS) concentration. Aliquots of this suspension were dosed with the indicated concentrations of the compounds (a) and (b) with the concentrations being measured as ppm active. The mixtures were allowed to stand at room temperature. At the designated contact times, each mixture was sampled to determine the total number of viable cells of both Desulfovibrio vulgaris and Enterobacter aerogenes by serial 10-fold dilution into API RP 38 media vials and anaerobic acid producing media vials, respectively. The vials were incubated at 37° C. for 72 hours. Results were recorded as log10 reduction in the viable count versus the control.
(§3) The efficacy of the treatment agents was evaluated by measuring the Log10 Reduction of the anaerobic bacterium Desulfovibrio vulgaris and the facultative anaerobic bacterium Enterobacter aerogenes after contact times of 1 hour, 4 hours and 24 hours as detailed in Table 1. For TTPC the stated ppm value relates to the amount of TTPC added (active). For the 4,4-dimethyloxazolidine the stated ppm relates to the amount of 4,4-dimethyloxazolidine added (active).

The subject of the next assay is Enterobacter aerogenes. The assay can be described thus: Log10 reduction of viable facultative anaerobic bacteria in high-TDS phosphate buffer suspension (anaerobic acid producing media vials). It is filed as cell-based. As to conditions: TDS 30,000 mg l^−1, 8 = complete kill. As to the method:
as §1, §2, §3

Setting [1] is: DMO 40 ppm active, contact time 1 hour.
The mark [2] stands for this setting: DMO 40 ppm active, contact time 4 hours.
Where [3] appears, read: DMO 40 ppm active, contact time 24 hours.
Setting [4] is: DMO 80 ppm active, contact time 1 hour.
Where [5] appears, read: DMO 80 ppm active, contact time 4 hours.
Setting [6] is: DMO 80 ppm active, contact time 24 hours.
Where [7] appears, read: TTPC 3.125 ppm active, contact time 1 hour.
[8] abbreviates: TTPC 3.125 ppm active, contact time 4 hours.
[9] abbreviates: TTPC 3.125 ppm active, contact time 24 hours.
Where [10] appears, read: TTPC 6.25 ppm active, contact time 1 hour.
Setting [11] is: TTPC 6.25 ppm active, contact time 4 hours.
[12] abbreviates: TTPC 6.25 ppm active, contact time 24 hours.

Consider `CC1(C)COCN1` [DMO, 4,4-dimethyloxazolidine], for which the “Log10 Reduction Anaerobes” value was 1 in the assay on Desulfovibrio vulgaris (setting [1]); 1 in the assay with Desulfovibrio vulgaris (setting [2]); 1 in the assay with Desulfovibrio vulgaris (setting [3]); 1 with Desulfovibrio vulgaris (setting [4]); 2 with Desulfovibrio vulgaris (setting [5]); 2 in the assay with Desulfovibrio vulgaris (setting [6]). Further, the “Log10 Reduction Facultative Anaerobes” value in the assay on Enterobacter aerogenes (setting [1]), in the assay with Enterobacter aerogenes (setting [2]), with Enterobacter aerogenes (setting [3]), in the assay on Enterobacter aerogenes (setting [4]), with Enterobacter aerogenes (setting [5]) and with Enterobacter aerogenes (setting [6]) was 0 each time.
Regarding `CCCCCCCCCCCCCC[P+](CCCC)(CCCC)CCCC.[Cl-]` [TTPC, tri n-butyl n-tetradecyl phosphonium chloride], the “Log10 Reduction Anaerobes” value in the assay on Desulfovibrio vulgaris (setting [7]) was 1; in the assay with Desulfovibrio vulgaris (setting [8]), 5; with Desulfovibrio vulgaris (setting [9]), 5; with Desulfovibrio vulgaris (setting [10]) it was 2; in the assay on Desulfovibrio vulgaris (setting [11]) it was 5; with Desulfovibrio vulgaris (setting [12]), 5. Moreover, the “Log10 Reduction Facultative Anaerobes” value was found to be 1 in the assay with Enterobacter aerogenes (setting [7]); 2 in the assay on Enterobacter aerogenes (setting [8]); 4 in the assay on Enterobacter aerogenes (setting [9]); 3 in the assay on Enterobacter aerogenes (setting [10]); 4 in the assay on Enterobacter aerogenes (setting [11]); 5 in the assay on Enterobacter aerogenes (setting [12]).
